# Measured values reported in US20130274104A1, “AGROCHEMICAL MIXTURES FOR INCREASING THE HEALTH OF A PLANT” (BASF SE, priority 2010, published 2013).
# How the values were obtained:
# Assay type in all cases: in vivo
# Soybeans [1] = experiment: Soybean leaf chlorophyll content, FIELD SCOUT CM1000 chlorophyll meter, Sparta, Ill.; details: Harpinαβ 70 g/ha, Pyraclostrobin 0.44 l/ha
# Method: (§1) Soybeans were grown in 2009 at eight locations in the U.S.A.: Jefferson, I A, Seymour, Ill., Sparta, Ill., Wyoming, Ill., Sheridan, Ind., Ozora, Mo., York, Nebr., and Centerville, S. Dak. The soybeans were planted at the local standard seeding rate with local standard row spacing. Each trial was setup as randomized complete block design with 6 replications. Plots consisted of 4 rows with the center two rows treated and harvested. Harvested plot size was minimum 15 m^2.
# The active ingredients were used as formulations. The formulations were used in the dose rates given below. The products were applied when the soybeans had developed four to six trifoliates. Pyraclostrobin (compound A) was applied once as HEADLINE® (250 g active per liter; EC formulation) with a product rate of 0.44 I/ha.
# The harpinαβ peptide (compound B) was applied as the experimental WG formulation EBC-351 (1% active ingredient) with a product rate of 70 g/ha. The mixture comprising pyraclostrobin and harpinαβ as shown in table 2 below was applied as a tankmix of both formulations.
# At the Sparta, Ill., location, the chlorophyll content (a well known indicator of the health of a plant) of 5 plants in a plot was measured with a FIELD SCOUT CM1000™ (Spectrum Technologies, Plainfield, Ill.) chlorophyll meter. Values were reported as a mean value per plot. The FIELD SCOUT CM1000™ senses light at wavelengths of 700 nm and 840 nm to estimate quantity of chlorophyll in leaves. The ambient and reflected light at each wavelength is measured. Light absorbtion at 700 nm by chlorophyll reduces the reflection at this wavelength whereas the light at 840 nm is unaffected and serves as an indication of light reflection due to physical characteristics of the leaf like a hairy leaf surface. Subsequently, a chlorophyll index value (0-999) is calculated from the measured ambient and reflected light data.
# Based on the index values the efficacy of the treatments were calculated as described for the grain yield above. Similarly, the expected efficacy was estimated using Colby's formula as described above.
# Maize (corn) = experiment: Maize field trials 2009, grain yield as indicator of plant health; details: BBCH 55/57; for Yield (kg/ha): seven US locations
# Method: Maize (corn) was grown in 2009 at seven locations in the U.S.A: Wyoming, Ill., Carlyle, Ill., Sparta, Ill., Manilla, Iowa, Blue Earth, Minn., Aurora, Nebr., and Tekamah, Nebr. The maize crop was planted at the local standard seeding rate with local standard row spacing. Each trial was set up as randomized complete block design with 8 replications. Plots consisted of 6-8 rows with the center two rows treated and harvested. Harvested plot size was at minimum 18.48 m^2.
# The active ingredients were used as formulations. The formulations were used in the dose rates given below. The products were applied at tassel emergence (BBCH 55/57). […] The untreated control plots were treated with water only.
# Grain yield (kg per ha) as an indicator for the health of a plant was assessed by harvesting the plants in the center rows of a plot (table 1). The efficacy was calculated as % increase of yield in the treatments compared to the untreated control using the following formula:
# (§2) E=a/b−1•100 • a corresponds to the grain yield of the treated plants in kg/ha and • b corresponds to the grain yield of the untreated (control) plants in kg/ha
# Soybeans [2] = experiment: Soybean field trials 2009, grain yield as indicator of plant health
# Method: as §1
# The active ingredients were used as formulations. The formulations were used in the dose rates given below. The products were applied when the soybeans had developed four to six trifoliates.
# The mixture comprising pyraclostrobin and harpinαβ as shown in table 2 below was applied as a tankmix of both formulations.
# Grain yield (kg per ha) was assessed as an indicator of plant health (table 2) by harvesting the plants in the center rows of a plot. The efficacy was calculated as % increase of yield in the treatments compared to the untreated control:
# as §2
smiles,measurement,setting,value
COC(=O)N(OC)c1ccccc1COc1ccn(-c2ccc(Cl)cc2)n1 [Pyraclostrobin],"effect on leaf chlorophyll content, in words",Soybeans [1],increases the chlorophyll content
same,"OE [%] (Observed efficacy, chlorophyll index compared to the untreated control)","Soybeans [1]; Sparta, Ill.",14.13%
same,"CC [0-999] (Chlorophyll Content, chlorophyll index value)","Soybeans [1]; Sparta, Ill., mean value per plot, 5 plants",773.50
same,"OE [%] (Observed efficacy, % increase of yield compared to the untreated control)","Maize (corn); Harpinαβ 35 g/ha, Pyraclostrobin 0.3 l/ha, alone or combined",1.10%
same,"OE [%] (Observed efficacy, % increase of yield compared to the untreated control)","Maize (corn); Pyraclostrobin 0.6 l/ha, Harpinαβ 35 g/ha in the combination",0.10%
same,Yield (kg/ha),"Maize (corn); product rates Harpinαβ 35 g/ha (1%), Pyraclostrobin 0.3 l/ha (250 g/l), alone or combined",13218.9 kg/ha
same,Yield (kg/ha),"Maize (corn); product rates Pyraclostrobin 0.6 l/ha (250 g/l), Harpinαβ 35 g/ha (1%) in the combination",13087.1 kg/ha
same,"OE [%] (Observed efficacy, % increase of yield compared to the untreated control)","Soybeans [2]; Harpinαβ 70 g/ha, Pyraclostrobin 0.44 l/ha, average of all trials",0.1%
same,"effect on grain yield, in words",Soybeans [2]; Pyraclostrobin 0.44 l/ha applied at early soybean development,did not increase the grain yield on an average
same,Yield (kg/ha),"Soybeans [2]; product rates Harpinαβ 70 g/ha (1%), Pyraclostrobin 0.44 l/ha (250 g/l), four to six trifoliates, eight US locations",3319 kg/ha
